How the values were obtained:
Assay type in all cases: biochemical
[1] = tested on: SAPK; assay: Human kinase panel, overall conclusion: SAPK
Description: (§1) Enzymatic activity of various human kinases was assayed in the presence and the absence of pirfenidone. Percent enzyme activity of various human enzymes in the presence of substrate and pirfenidone are shown in FIGS. 1-5, and in Table 2, below, where “percent enzyme activity” is the percent of the control activity (e.g., in the absence of pirfenidone): […]

[2] = tested on: other kinases tested; assay: Human kinase panel, overall conclusion: other kinases
Description: as §1

[3] = target: PDGFR (Homo sapiens, UniProt P16234); assay: Enzymatic activity of human kinase in presence of pirfenidone; conditions: percent of control activity in absence of pirfenidone, concentration not given
Description: as §1

[4] = target: CHK1 (Homo sapiens, UniProt O14757); assay: as above; conditions: percent of control activity in absence of pirfenidone, concentration not given
Description: as §1

[5] = target: MSK1 (Homo sapiens, UniProt O75582); assay: as above; conditions: percent of control activity in absence of pirfenidone, concentration not given
Description: as §1

[6] = target: Rsk1 (Homo sapiens, UniProt Q15418); assay: as above; conditions: percent of control activity in absence of pirfenidone, concentration not given
Description: as §1

[7] = target: cSRC (Homo sapiens, UniProt P12931); assay: as above; conditions: percent of control activity in absence of pirfenidone, concentration not given
Description: as §1

[8] = target: MKK6 (Homo sapiens, UniProt P52564); assay: as above; conditions: percent of control activity in absence of pirfenidone, concentration not given
Description: as §1

[9] = target: SAPK2β (Homo sapiens, UniProt Q15759); assay: as above; conditions: percent of control activity in absence of pirfenidone, concentration not given
Description: as §1

[10] = target: Yes (Homo sapiens, UniProt P07947); assay: as above; conditions: percent of control activity in absence of pirfenidone, concentration not given
Description: as §1

[11] = target: PDGFRβ (Homo sapiens, UniProt P09619); assay: as above; conditions: percent of control activity in absence of pirfenidone, concentration not given
Description: as §1

[12] = target: PKD2 (Homo sapiens, UniProt Q9BZL6); assay: as above; conditions: percent of control activity in absence of pirfenidone, concentration not given
Description: as §1

[13] = target: PKA (Homo sapiens, UniProt P17612); assay: as above; conditions: percent of control activity in absence of pirfenidone, concentration not given
Description: as §1

[14] = target: p70S6K (Homo sapiens, UniProt P23443); assay: as above; conditions: percent of control activity in absence of pirfenidone, concentration not given
Description: as §1

[15] = target: PAK2 (Homo sapiens, UniProt Q13177); assay: as above; conditions: percent of control activity in absence of pirfenidone, concentration not given
Description: as §1

[16] = tested on: CDK7/cyclinD3; assay: as above; conditions: percent of control activity in absence of pirfenidone, concentration not given
Description: as §1

[17] = target: Flt3 (Homo sapiens, UniProt P36888); assay: as above; conditions: percent of control activity in absence of pirfenidone, concentration not given
Description: as §1

[18] = target: CHK2 (Homo sapiens, UniProt O96017); assay: as above; conditions: percent of control activity in absence of pirfenidone, concentration not given
Description: as §1

[19] = target: Ax1 (Homo sapiens, UniProt P30530); assay: as above; conditions: percent of control activity in absence of pirfenidone, concentration not given
Description: as §1

[20] = target: CDK5/cyclinB (Homo sapiens, UniProt Q00535); assay: as above; conditions: percent of control activity in absence of pirfenidone, concentration not given
Description: as §1

[21] = target: GSK3β (Homo sapiens, UniProt P49841); assay: as above; conditions: percent of control activity in absence of pirfenidone, concentration not given
Description: as §1

[22] = target: CDK3/cyclinE (Homo sapiens, UniProt Q00526); assay: as above; conditions: percent of control activity in absence of pirfenidone, concentration not given
Description: as §1

[23] = target: SAPK4 (Homo sapiens, UniProt O15264); assay: as above; conditions: percent of control activity in absence of pirfenidone, concentration not given
Description: as §1

[24] = target: PKCμ (Homo sapiens, UniProt Q15139); assay: as above; conditions: percent of control activity in absence of pirfenidone, concentration not given
Description: as §1

[25] = target: Bmx (Homo sapiens, UniProt P51813); assay: as above; conditions: percent of control activity in absence of pirfenidone, concentration not given
Description: as §1

[26] = tested on: MAPK1 (Homo sapiens); assay: as above; conditions: percent of control activity in absence of pirfenidone, concentration not given
Description: as §1

[27] = target: c-RAF (Homo sapiens, UniProt P04049); assay: as above; conditions: percent of control activity in absence of pirfenidone, concentration not given
Description: as §1

[28] = target: MAPKAP-K2 (Homo sapiens, UniProt P49137); assay: as above; conditions: percent of control activity in absence of pirfenidone, concentration not given
Description: as §1

[29] = target: GSK3α (Homo sapiens, UniProt P49840); assay: as above; conditions: percent of control activity in absence of pirfenidone, concentration not given
Description: as §1

[30] = target: FGFR3 (Homo sapiens, UniProt P22607); assay: as above; conditions: percent of control activity in absence of pirfenidone, concentration not given
Description: as §1

[31] = target: Lck (Homo sapiens, UniProt P06239); assay: as above; conditions: percent of control activity in absence of pirfenidone, concentration not given
Description: as §1

[32] = target: ZAP-70 (Homo sapiens, UniProt P43403); assay: as above; conditions: percent of control activity in absence of pirfenidone, concentration not given
Description: as §1

[33] = target: CDK7/cyclinH/MAT1 (Homo sapiens, UniProt P50613); assay: as above; conditions: percent of control activity in absence of pirfenidone, concentration not given
Description: as §1

[34] = target: IKKα (Homo sapiens, UniProt O15111); assay: as above; conditions: percent of control activity in absence of pirfenidone, concentration not given
Description: as §1

[35] = target: MEK1 (Homo sapiens, UniProt Q02750); assay: as above; conditions: percent of control activity in absence of pirfenidone, concentration not given
Description: as §1

[36] = target: PKCη (Homo sapiens, UniProt P24723); assay: as above; conditions: percent of control activity in absence of pirfenidone, concentration not given
Description: as §1

[37] = tested on: PKCo; assay: as above; conditions: percent of control activity in absence of pirfenidone, concentration not given
Description: as §1

[38] = target: PKBα (Homo sapiens, UniProt P31749); assay: as above; conditions: percent of control activity in absence of pirfenidone, concentration not given
Description: as §1

[39] = target: TrkB (Homo sapiens, UniProt Q16620); assay: as above; conditions: percent of control activity in absence of pirfenidone, concentration not given
Description: as §1

[40] = target: ROCK-II (Homo sapiens, UniProt O75116); assay: as above; conditions: percent of control activity in absence of pirfenidone, concentration not given
Description: as §1

[41] = target: SGK (Homo sapiens, UniProt O00141); assay: as above; conditions: percent of control activity in absence of pirfenidone, concentration not given
Description: as §1

[42] = target: MKK7β (Homo sapiens, UniProt O14733); assay: as above; conditions: percent of control activity in absence of pirfenidone, concentration not given
Description: as §1

[43] = target: PKBβ (Homo sapiens, UniProt P31751); assay: as above; conditions: percent of control activity in absence of pirfenidone, concentration not given
Description: as §1

Sequence of Bmx (P51813 whole entry): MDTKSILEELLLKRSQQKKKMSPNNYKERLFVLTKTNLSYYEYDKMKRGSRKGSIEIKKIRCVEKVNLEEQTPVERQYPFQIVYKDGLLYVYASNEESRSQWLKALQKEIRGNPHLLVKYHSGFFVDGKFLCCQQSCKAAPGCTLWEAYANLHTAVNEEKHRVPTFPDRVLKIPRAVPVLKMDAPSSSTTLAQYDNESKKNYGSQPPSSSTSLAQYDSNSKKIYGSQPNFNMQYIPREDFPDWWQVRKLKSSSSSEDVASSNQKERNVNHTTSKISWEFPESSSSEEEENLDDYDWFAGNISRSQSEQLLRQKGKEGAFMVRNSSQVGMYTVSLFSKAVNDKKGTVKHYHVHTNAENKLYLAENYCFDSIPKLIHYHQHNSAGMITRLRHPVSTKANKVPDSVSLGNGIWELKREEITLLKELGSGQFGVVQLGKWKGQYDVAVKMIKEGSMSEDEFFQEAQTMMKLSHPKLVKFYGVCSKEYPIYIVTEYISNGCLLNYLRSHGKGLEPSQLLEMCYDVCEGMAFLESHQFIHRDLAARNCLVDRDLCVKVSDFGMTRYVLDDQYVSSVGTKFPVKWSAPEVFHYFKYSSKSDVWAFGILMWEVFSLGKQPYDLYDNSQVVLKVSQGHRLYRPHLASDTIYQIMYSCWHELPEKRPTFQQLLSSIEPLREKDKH
Sequence of SGK (O00141 whole entry): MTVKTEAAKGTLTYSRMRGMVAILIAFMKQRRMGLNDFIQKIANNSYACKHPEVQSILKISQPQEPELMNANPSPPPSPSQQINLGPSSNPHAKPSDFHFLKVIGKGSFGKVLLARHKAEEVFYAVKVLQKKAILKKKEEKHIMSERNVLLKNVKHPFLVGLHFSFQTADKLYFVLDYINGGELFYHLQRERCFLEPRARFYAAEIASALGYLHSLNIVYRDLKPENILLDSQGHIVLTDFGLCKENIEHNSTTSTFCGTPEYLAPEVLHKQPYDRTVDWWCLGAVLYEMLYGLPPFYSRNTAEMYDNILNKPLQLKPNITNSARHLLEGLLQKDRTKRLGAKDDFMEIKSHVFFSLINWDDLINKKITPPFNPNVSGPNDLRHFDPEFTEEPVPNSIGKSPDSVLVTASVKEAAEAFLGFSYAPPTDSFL
Sequence of CDK3/cyclinE (Q00526 whole entry): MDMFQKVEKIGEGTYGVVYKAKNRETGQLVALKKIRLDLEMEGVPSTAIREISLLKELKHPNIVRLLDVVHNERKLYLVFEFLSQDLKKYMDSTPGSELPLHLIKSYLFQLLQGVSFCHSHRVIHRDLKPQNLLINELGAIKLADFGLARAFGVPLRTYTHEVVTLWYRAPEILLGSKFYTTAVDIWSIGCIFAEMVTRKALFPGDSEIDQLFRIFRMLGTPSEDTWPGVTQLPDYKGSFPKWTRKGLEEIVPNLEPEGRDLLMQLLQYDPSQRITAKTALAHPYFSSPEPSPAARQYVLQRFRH
Sequence of CDK3/cyclinE (P24864 whole entry partner): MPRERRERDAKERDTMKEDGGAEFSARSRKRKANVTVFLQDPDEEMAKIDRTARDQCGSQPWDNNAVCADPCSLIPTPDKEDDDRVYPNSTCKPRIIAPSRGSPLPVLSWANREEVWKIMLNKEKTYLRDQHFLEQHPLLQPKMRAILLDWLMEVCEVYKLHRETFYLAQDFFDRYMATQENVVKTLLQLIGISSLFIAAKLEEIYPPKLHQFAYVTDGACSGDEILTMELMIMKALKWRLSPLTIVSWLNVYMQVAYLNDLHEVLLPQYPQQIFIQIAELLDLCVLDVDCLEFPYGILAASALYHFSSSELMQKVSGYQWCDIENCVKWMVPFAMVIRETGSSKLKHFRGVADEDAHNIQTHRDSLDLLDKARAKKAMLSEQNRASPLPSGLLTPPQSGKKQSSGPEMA
Sequence of PAK2 (Q13177 whole entry): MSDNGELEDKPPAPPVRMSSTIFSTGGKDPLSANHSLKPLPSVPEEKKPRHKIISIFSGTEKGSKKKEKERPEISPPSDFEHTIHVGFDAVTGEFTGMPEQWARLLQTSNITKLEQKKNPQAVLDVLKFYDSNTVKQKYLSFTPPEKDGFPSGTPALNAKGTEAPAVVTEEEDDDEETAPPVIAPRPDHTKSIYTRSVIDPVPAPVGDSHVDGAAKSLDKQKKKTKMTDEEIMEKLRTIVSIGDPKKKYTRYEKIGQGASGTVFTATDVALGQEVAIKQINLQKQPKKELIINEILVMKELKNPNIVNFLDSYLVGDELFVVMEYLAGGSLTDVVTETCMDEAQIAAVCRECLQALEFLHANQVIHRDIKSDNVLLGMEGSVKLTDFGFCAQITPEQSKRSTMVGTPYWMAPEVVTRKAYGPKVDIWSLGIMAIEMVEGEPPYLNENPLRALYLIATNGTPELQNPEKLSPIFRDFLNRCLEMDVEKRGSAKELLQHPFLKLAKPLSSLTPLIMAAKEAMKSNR
Sequence of CHK1 (O14757 whole entry): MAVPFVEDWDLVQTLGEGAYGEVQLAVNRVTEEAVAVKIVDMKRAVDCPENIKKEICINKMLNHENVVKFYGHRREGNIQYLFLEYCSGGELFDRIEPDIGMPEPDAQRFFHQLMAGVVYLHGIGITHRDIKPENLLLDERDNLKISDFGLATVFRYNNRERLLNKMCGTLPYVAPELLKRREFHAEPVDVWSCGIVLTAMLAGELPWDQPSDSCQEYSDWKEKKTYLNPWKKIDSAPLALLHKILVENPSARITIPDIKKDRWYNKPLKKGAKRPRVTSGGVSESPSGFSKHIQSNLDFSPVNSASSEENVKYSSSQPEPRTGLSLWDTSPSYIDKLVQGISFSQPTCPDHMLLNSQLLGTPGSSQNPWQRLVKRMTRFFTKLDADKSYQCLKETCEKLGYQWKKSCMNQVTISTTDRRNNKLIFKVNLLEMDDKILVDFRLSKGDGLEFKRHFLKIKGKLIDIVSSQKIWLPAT
Sequence of MAPK1 (Homo sapiens) (P27361 whole entry): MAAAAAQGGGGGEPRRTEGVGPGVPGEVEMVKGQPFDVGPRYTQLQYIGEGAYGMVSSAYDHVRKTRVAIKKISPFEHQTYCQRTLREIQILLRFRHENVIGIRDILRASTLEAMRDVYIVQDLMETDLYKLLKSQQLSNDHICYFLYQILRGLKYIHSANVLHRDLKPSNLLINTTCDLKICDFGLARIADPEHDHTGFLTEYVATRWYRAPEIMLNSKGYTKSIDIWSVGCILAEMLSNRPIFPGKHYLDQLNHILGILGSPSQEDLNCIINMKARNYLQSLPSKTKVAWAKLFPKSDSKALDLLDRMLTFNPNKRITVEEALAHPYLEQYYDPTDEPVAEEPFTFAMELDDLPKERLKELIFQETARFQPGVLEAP
Sequence of MKK6 (P52564 whole entry): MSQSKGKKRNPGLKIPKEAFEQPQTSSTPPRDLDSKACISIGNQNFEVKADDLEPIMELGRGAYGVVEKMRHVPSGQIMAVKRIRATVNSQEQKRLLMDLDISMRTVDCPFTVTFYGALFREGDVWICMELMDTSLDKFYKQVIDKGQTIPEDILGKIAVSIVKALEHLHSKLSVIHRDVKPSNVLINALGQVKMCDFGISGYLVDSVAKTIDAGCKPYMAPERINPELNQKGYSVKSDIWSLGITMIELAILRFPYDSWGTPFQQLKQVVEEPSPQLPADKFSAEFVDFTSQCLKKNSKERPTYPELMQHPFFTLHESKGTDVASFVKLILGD
Sequence of MEK1 (Q02750 whole entry): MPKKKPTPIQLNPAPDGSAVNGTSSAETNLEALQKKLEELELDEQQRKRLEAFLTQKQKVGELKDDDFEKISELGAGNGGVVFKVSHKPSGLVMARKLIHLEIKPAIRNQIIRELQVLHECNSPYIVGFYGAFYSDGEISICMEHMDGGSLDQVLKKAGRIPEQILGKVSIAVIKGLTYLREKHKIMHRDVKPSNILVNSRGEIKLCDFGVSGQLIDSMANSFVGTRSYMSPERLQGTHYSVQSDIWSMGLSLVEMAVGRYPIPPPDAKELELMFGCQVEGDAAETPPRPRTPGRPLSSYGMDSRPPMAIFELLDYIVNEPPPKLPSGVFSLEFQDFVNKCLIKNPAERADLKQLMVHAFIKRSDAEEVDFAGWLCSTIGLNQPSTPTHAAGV
Sequence of FGFR3 (P22607 23-806): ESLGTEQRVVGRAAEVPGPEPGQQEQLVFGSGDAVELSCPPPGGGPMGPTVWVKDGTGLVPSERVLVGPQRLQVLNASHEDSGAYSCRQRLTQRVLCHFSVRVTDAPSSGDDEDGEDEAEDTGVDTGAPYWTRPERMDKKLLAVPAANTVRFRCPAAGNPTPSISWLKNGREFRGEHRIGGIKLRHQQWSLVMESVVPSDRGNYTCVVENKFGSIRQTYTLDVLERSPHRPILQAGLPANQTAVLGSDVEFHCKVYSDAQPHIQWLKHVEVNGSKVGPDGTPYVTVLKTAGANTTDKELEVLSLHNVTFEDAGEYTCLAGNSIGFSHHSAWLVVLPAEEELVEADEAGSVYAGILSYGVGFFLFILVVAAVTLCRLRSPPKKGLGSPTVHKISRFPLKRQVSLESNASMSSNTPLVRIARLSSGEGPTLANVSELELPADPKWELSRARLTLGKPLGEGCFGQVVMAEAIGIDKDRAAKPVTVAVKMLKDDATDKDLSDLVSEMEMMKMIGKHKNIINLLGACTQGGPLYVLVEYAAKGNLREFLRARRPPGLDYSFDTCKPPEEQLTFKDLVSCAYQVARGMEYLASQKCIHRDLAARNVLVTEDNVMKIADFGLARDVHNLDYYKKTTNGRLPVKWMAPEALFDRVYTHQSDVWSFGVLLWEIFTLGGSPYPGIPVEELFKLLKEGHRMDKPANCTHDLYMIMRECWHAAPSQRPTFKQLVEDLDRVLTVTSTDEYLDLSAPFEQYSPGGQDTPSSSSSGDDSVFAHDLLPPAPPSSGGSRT

Inhibition of SAPK (conclusion from Table 2 data) [1]: is an inhibitor of SAPK
Inhibition of other kinases tested (conclusion from Table 2 data) [2]: does not substantially inhibit
% Activity [3]: 101%
% Activity [4]: 105%
% Activity [5]: 93%
% Activity [6]: 88%
% Activity [7]: 91%
% Activity [8]: 84%
% Activity [9]: 74%
% Activity [10]: 104%
% Activity [11]: 101%
% Activity [12]: 98%
% Activity [13]: 109%
% Activity [14]: 96%
% Activity [15]: 93%
% Activity [16]: 92%
% Activity [17]: 103%
% Activity [18]: 84%
% Activity [19]: 93%
% Activity [20]: 102%
% Activity [21]: 91%
% Activity [22]: 86%
% Activity [23]: 98%
% Activity [24]: 96%
% Activity [25]: 86%
% Activity [26]: 98%
% Activity [27]: 91%
% Activity [28]: 97%
% Activity [29]: 91%
% Activity [30]: 104%
% Activity [31]: 104%
% Activity [32]: 109%
% Activity [33]: 95%
% Activity [34]: 114%
% Activity [35]: 100%
% Activity [36]: 88%
% Activity [37]: 106%
% Activity [38]: 88%
% Activity [39]: 101%
% Activity [40]: 90%
% Activity [41]: 106%
% Activity [42]: 105%
% Activity [43]: 88%
SMILES: Cc1ccc(=O)n(-c2ccccc2)c1 [pirfenidone, 5-methyl-1-phenyl-2-(1H)-pyridone]

Reference: patent publication US7407973B2, “Use of pirfenidone in therapeutic regimens” (Intermune, Inc., priority 2003, dated 2008)
